From patent US20250098679A1, “HERBICIDAL PYRIDONE DERIVATIVES” (SYNGENTA CROP PROTECTION AG, priority 2021, published 2025)

Key:
Format in all cases: in vivo
Conditions in all cases: evaluated after 13 days
[1] = system: Setaria faberi (SETFA); assay: Pre-emergence Test, Setaria faberi (SETFA)
[2] = system: Echinochloa crus-galli (ECHCG); assay: Pre-emergence Test, Echinochloa crus-galli (ECHCG)
[3] = system: Zea mays (ZEAMX); assay: Pre-emergence Test, Zea mays (ZEAMX)
[4] = system: Ipomoea hederacea (IPOHE); assay: Pre-emergence Test, Ipomoea hederacea (IPOHE)
[5] = system: Amaranthus palmeri (AMAPA); assay: Pre-emergence Test, Amaranthus palmeri (AMAPA)
[6] = system: Amaranthus retoflexus (AMARE); assay: Pre-emergence Test, Amaranthus retoflexus (AMARE)
[7] = system: Setaria faberi (SETFA); assay: Post-emergence Test, Setaria faberi (SETFA); parameters: key to percentage damage caused to the plant, SETFA (five-point scale): 5=81-100%, 4=61-80%, 3=41-60%, 2=21-40%, 1=0-20% damage
In short: (§1)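 Pots sprayed with compound in acetone/water (50:50) with 0.5% Tween 20, at 1000 g/ha unless noted, glasshouse 24/16 °C, 14 h light, 65% humidity. Damage scored 13 days after spraying on a five-point scale (5=81-100% to 1=0-20%).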

[8] = system: Echinochloa crus-galli (ECHCG); assay: Post-emergence Test, Echinochloa crus-galli (ECHCG); parameters: key to percentage damage caused to the plant, ECHCG (five-point scale): 5=81-100%, 4=61-80%, 3=41-60%, 2=21-40%, 1=0-20% damage
In short: as §1

[9] = system: Zea mays (ZEAMX); assay: Post-emergence Test, Zea mays (ZEAMX); parameters: key to percentage damage caused to the plant, ZEAMX (five-point scale): 5=81-100%, 4=61-80%, 3=41-60%, 2=21-40%, 1=0-20% damage
In short: as §1

[10] = system: Ipomoea hederacea (IPOHE); assay: Post-emergence Test, Ipomoea hederacea (IPOHE); parameters: key to percentage damage caused to the plant, IPOHE (five-point scale): 5=81-100%, 4=61-80%, 3=41-60%, 2=21-40%, 1=0-20% damage
In short: as §1

[11] = system: Amaranthus palmeri (AMAPA); assay: Post-emergence Test, Amaranthus palmeri (AMAPA); parameters: key: 5=81-100%, 4=61-80%, 3=41-60%, 2=21-40%, 1=0-20% damage
In short: as §1

[12] = system: Amaranthus retoflexus (AMARE); assay: Post-emergence Test, Amaranthus retoflexus (AMARE); parameters: key to percentage damage caused to the plant, AMARE (five-point scale): 5=81-100%, 4=61-80%, 3=41-60%, 2=21-40%, 1=0-20% damage
In short: as §1

Compound | Pre-emergence Test SETFA, percentage damage caused to the plant (five-point scale) ([1]; 1000 g/ha) | Pre-emergence Test ECHCG, percentage damage caused to the plant (five-point scale) ([2]; 1000 g/ha) | Pre-emergence Test ZEAMX, percentage damage caused to the plant (five-point scale) ([3]; 1000 g/ha) | Pre-emergence Test IPOHE, percentage damage caused to the plant (five-point scale) ([4]; 1000 g/ha) | Pre-emergence Test AMAPA, percentage damage caused to the plant (five-point scale) ([5]; 1000 g/ha) | Pre-emergence Test AMARE, percentage damage caused to the plant (five-point scale) ([6]; 1000 g/ha) | percentage damage caused to the plant, SETFA (five-point scale) ([7]; 250 g/Ha) | percentage damage caused to the plant, SETFA (five-point scale) ([7]; 1000 g/ha) | percentage damage caused to the plant, ECHCG (five-point scale) ([8]; 250 g/Ha) | percentage damage caused to the plant, ECHCG (five-point scale) ([8]; 1000 g/ha) | percentage damage caused to the plant, ZEAMX (five-point scale) ([9]; 250 g/Ha) | percentage damage caused to the plant, ZEAMX (five-point scale) ([9]; 1000 g/ha) | percentage damage caused to the plant, IPOHE (five-point scale) ([10]; 250 g/Ha) | percentage damage caused to the plant, IPOHE (five-point scale) ([10]; 1000 g/ha) | percentage damage caused to the plant, AMAPA (five-point scale) ([11]; 250 g/Ha) | percentage damage caused to the plant, AMAPA (five-point scale) ([11]; 1000 g/ha) | percentage damage caused to the plant, AMARE (five-point scale) ([12]; 250 g/Ha) | percentage damage caused to the plant, AMARE (five-point scale) ([12]; 1000 g/ha) | also measured
CCn1c(Cn2ccc(C(F)F)n2)cc(=O)c(C(=O)O)c1-c1ccc(Cl)c(Cl)c1 [Compound 186] | 5 (5=81-100%) | 5 (5=81-100%) | 3 (3=41-60%) | 4 (4=61-80%) | 1 (1=0-20%) | 2 (2=21-40%) | 4 (4=61-80%) | 4 (4=61-80%) | 4 (4=61-80%) | 4 (4=61-80%) | 1 (1=0-20%) | 1 (1=0-20%) | 4 (4=61-80%) | 4 (4=61-80%) | 2 (2=21-40%) | 2 (2=21-40%) | 1 (1=0-20%) | 3 (3=41-60%) | Pre-emergence Test SETFA, percentage damage caused to the plant (five-point scale) ([1]; 250 g/Ha (*)): 5 (5=81-100%); Pre-emergence Test ECHCG, percentage damage caused to the plant (five-point scale) ([2]; 250 g/Ha (*)): 4 (4=61-80%); Pre-emergence Test ZEAMX, percentage damage caused to the plant (five-point scale) ([3]; 250 g/Ha (*)): 0; Pre-emergence Test IPOHE, percentage damage caused to the plant (five-point scale) ([4]; 250 g/Ha (*)): 2 (2=21-40%); Pre-emergence Test AMAPA, percentage damage caused to the plant (five-point scale) ([5]; 250 g/Ha (*)): 0; Pre-emergence Test AMARE, percentage damage caused to the plant (five-point scale) ([6]; 250 g/Ha (*)): 0
CCOC(=O)c1nn(Cc2cc(=O)c(C(=O)O)c(-c3ccc(Cl)c(Cl)c3)n2CC)cc1C [Compound 123, 2-(3,4-dichlorophenyl)-6-[(3-ethoxycarbonyl-4-methyl-pyrazol-1-yl)methyl]-1-ethyl-4-oxo-pyridine-3-carboxylic acid] | 1 (1=0-20%) | 0 | 0 | 0 | 1 (1=0-20%) | 0 | 0 | 1 (1=0-20%) | 2 (2=21-40%) | 1 (1=0-20%) | 0 | 1 (1=0-20%) | 0 | 2 (2=21-40%) | 0 | – | 0 | 1 (1=0-20%) | –
CCn1c(Cn2ccnn2)cc(=O)c(C(=O)O)c1-c1ccc(Cl)c(Cl)c1 [Compound 45, 2-(3,4-dichlorophenyl)-1-ethyl-4-oxo-6-(triazol-1-ylmethyl)pyridine-3-carboxylic acid] | 1 (1=0-20%) | 4 (4=61-80%) | 0 | 0 | 1 (1=0-20%) | 0 | – | 1 (1=0-20%) | – | 1 (1=0-20%) | – | 0 | – | 0 | – | 1 (1=0-20%) | – | 0 | –
